Data: ChEMBL document CHEMBL1201862, “PubChem BioAssay data set” (2004)
“And” between values parts separate entries of the source, which are not always exact repeats. Identical values can stand only once.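 Tested at 5 concentrations; 48 h exposure; 96-well plates; endpoints linearly interpolated, else capped at highest concentration. Abbreviation: GI50, concentration required for 50% inhibition of growth.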 The source made the active and inactive calls. No stated cut-off is given here; in the data, active = GI50 up to about 1.1 µM and inactive = higher.

What was measured:
Test in all cases: NCI-60 cell line screen, 48 h
786-0 = tested on: 786-0
PC-3 = tested on: PC-3
HOP-18 = tested on: HOP-18
SR = tested on: SR
BT-549 = tested on: BT-549
HCT-116 = tested on: HCT-116
T47D = tested on: T47D
NCI/ADR-RES = tested on: NCI/ADR-RES
MDA-MB-231 = tested on: MDA-MB-231
TK-10 = tested on: TK-10
RPMI-8226 = tested on: RPMI-8226
MCF7 = tested on: MCF7
HL-60 = tested on: HL-60
M14 = tested on: M14
CAKI-1 = tested on: CAKI-1
SK-MEL-5 = tested on: SK-MEL-5
HOP-62 = tested on: HOP-62
UACC-62 = tested on: UACC-62
RXF 631 = tested on: RXF 631
KM-20L2 = tested on: KM-20L2
A549 = tested on: A549
HCC 2998 = tested on: HCC 2998
OVCAR-5 = tested on: OVCAR-5
MDA-N = tested on: MDA-N
MDA-MB-435 = tested on: MDA-MB-435
OVCAR-4 = tested on: OVCAR-4
SK-MEL-2 = tested on: SK-MEL-2
KM12 = tested on: KM12
Hs-578T = tested on: Hs-578T
DU-145 = tested on: DU-145
HCT-15 = tested on: HCT-15
DLD-1 = tested on: DLD-1
DMS-273 = tested on: DMS-273
LXFL 529 = tested on: LXFL 529
NCI-H23 = tested on: NCI-H23
EKVX = tested on: EKVX
NCI-H226 = tested on: NCI-H226
SNB-19 = tested on: SNB-19
K562 = tested on: K562
SN12C = tested on: SN12C
A498 = tested on: A498
DMS-114 = tested on: DMS-114
COLO 205 = tested on: COLO 205
SF-268 = tested on: SF-268
OVCAR-8 = tested on: OVCAR-8
OVCAR-3 = tested on: OVCAR-3
SNB-75 = tested on: SNB-75
HOP-92 = tested on: HOP-92
SNB-78 = tested on: SNB-78
SK-OV-3 = tested on: SK-OV-3
MOLT-4 = tested on: MOLT-4
XF498 = tested on: XF498
RXF 393 = tested on: RXF 393
SF-295 = tested on: SF-295
SW-620 = tested on: SW-620
CCRF-CEM = tested on: CCRF-CEM
Malme-3M = tested on: Malme-3M
UACC-257 = tested on: UACC-257
UO-31 = tested on: UO-31
NCI-H460 = tested on: NCI-H460
SK-MEL-28 = tested on: SK-MEL-28
IGROV-1 = tested on: IGROV-1
M19-MEL = tested on: M19-MEL
HT-29 = tested on: HT-29
NCI-H522 = tested on: NCI-H522
ACHN = tested on: ACHN
U-251 = tested on: U-251
SF-539 = tested on: SF-539
LOX IMVI = tested on: LOX IMVI

Structure (SMILES): O=C1C(Br)=C(Br)C(=O)c2ccccc21 [2,3-Dibromo-1,4-naphthoquinone]
- GI50 (786-0): 18.3 µM (inactive) and 9.77 µM (inactive)
- GI50 (PC-3): 17.5 µM (inactive)
- GI50 (HOP-18): 20.1 µM (inactive)
- GI50 (SR): 2.2 µM (inactive)
- GI50 (BT-549): 4.61 µM (inactive)
- GI50 (HCT-116): 17.9 µM (inactive) and 12.2 µM (inactive)
- GI50 (T47D): 3.5 µM (inactive)
- GI50 (NCI/ADR-RES): 22.2 µM (inactive)
- GI50 (MDA-MB-231): 5.19 µM (inactive)
- GI50 (TK-10): 17.1 µM (inactive) and 12.7 µM (inactive)
- GI50 (RPMI-8226): 3.01 µM (inactive)
- GI50 (MCF7): 17.5 µM (inactive)
- GI50 (HL-60): 2.7 µM (inactive)
- GI50 (M14): 15.1 µM (inactive) and 8.77 µM (inactive)
- GI50 (CAKI-1): 6.34 µM (inactive)
- GI50 (SK-MEL-5): 10.5 µM (inactive)
- GI50 (HOP-62): 18.5 µM (inactive) and 21.5 µM (inactive)
- GI50 (UACC-62): 16.7 µM (inactive) and 9.71 µM (inactive)
- GI50 (RXF 631): 5.94 µM (inactive)
- GI50 (KM-20L2): 30.2 µM (inactive) and 15.1 µM (inactive)
- GI50 (A549): 13.6 µM (inactive)
- GI50 (HCC 2998): 21.7 µM (inactive) and 19.1 µM (inactive)
- GI50 (OVCAR-5): 20.5 µM (inactive) and 10.6 µM (inactive)
- GI50 (MDA-N): 3.84 µM (inactive)
- GI50 (MDA-MB-435): 7.98 µM (inactive)
- GI50 (OVCAR-4): 17.1 µM (inactive) and 11.1 µM (inactive)
- GI50 (SK-MEL-2): 19.6 µM (inactive) and 10.4 µM (inactive)
- GI50 (KM12): 19.6 µM (inactive) and 12.8 µM (inactive)
- GI50 (Hs-578T): 4.98 µM (inactive)
- GI50 (DU-145): 18.7 µM (inactive)
- GI50 (HCT-15): 17.2 µM and 11.9 µM
- GI50 (DLD-1): 15.2 µM (inactive) and 18.5 µM (inactive)

Structure (SMILES): Clc1ccc(-n2nnc(C3=NCCN3)c2-c2ccccc2)cc1
- GI50 (786-0): > 100 µM (inactive)
- GI50 (DMS-273): > 100 µM (inactive)
- GI50 (LXFL 529): > 100 µM (inactive)
- GI50 (NCI-H23): > 100 µM (inactive)
- GI50 (EKVX): > 100 µM (inactive)
- GI50 (NCI-H226): > 100 µM (inactive)
- GI50 (SNB-19): > 100 µM (inactive)
- GI50 (K562): > 100 µM (inactive)
- GI50 (HOP-18): > 100 µM (inactive)
- GI50 (SR): > 100 µM (inactive)
- GI50 (HCT-116): > 100 µM (inactive)
- GI50 (SN12C): > 100 µM (inactive)
- GI50 (A498): > 100 µM (inactive)
- GI50 (DMS-114): > 100 µM (inactive)
- GI50 (TK-10): 66.8 µM (inactive)
- GI50 (COLO 205): > 100 µM (inactive)
- GI50 (RPMI-8226): > 100 µM (inactive)
- GI50 (SF-268): > 100 µM (inactive)
- GI50 (OVCAR-8): > 100 µM (inactive)
- GI50 (HL-60): > 100 µM (inactive)
- GI50 (M14): > 100 µM (inactive)
- GI50 (CAKI-1): > 100 µM (inactive)
- GI50 (SK-MEL-5): 86.9 µM (inactive)
- GI50 (OVCAR-3): > 100 µM (inactive)
- GI50 (HOP-62): > 100 µM (inactive)
- GI50 (SNB-75): 47.3 µM (inactive)
- GI50 (HOP-92): 68.7 µM (inactive)
- GI50 (SNB-78): > 100 µM (inactive)
- GI50 (UACC-62): > 100 µM (inactive)
- GI50 (SK-OV-3): > 100 µM (inactive)
- GI50 (KM-20L2): > 100 µM (inactive)
- GI50 (A549): > 100 µM (inactive)
- GI50 (MOLT-4): 78.5 µM (inactive)
- GI50 (XF498): > 100 µM (inactive)
- GI50 (RXF 393): > 100 µM (inactive)
- GI50 (HCC 2998): > 100 µM (inactive)
- GI50 (SF-295): > 100 µM (inactive)
- GI50 (OVCAR-5): > 100 µM (inactive)
- GI50 (SW-620): > 100 µM (inactive)
- GI50 (CCRF-CEM): > 100 µM (inactive)
- GI50 (Malme-3M): > 100 µM (inactive)
- GI50 (UACC-257): > 100 µM (inactive)
- GI50 (UO-31): 43.3 µM (inactive)
- GI50 (NCI-H460): > 100 µM (inactive)
- GI50 (OVCAR-4): > 100 µM (inactive)
- GI50 (SK-MEL-2): > 100 µM (inactive)
- GI50 (KM12): > 100 µM (inactive)
- GI50 (SK-MEL-28): > 100 µM (inactive)
- GI50 (IGROV-1): > 100 µM (inactive)
- GI50 (M19-MEL): > 100 µM (inactive)
- GI50 (HT-29): > 100 µM (inactive)
- GI50 (NCI-H522): > 100 µM (inactive)
- GI50 (ACHN): > 100 µM (inactive)
- GI50 (U-251): > 100 µM (inactive)
- GI50 (SF-539): > 100 µM (inactive)
- GI50 (HCT-15): > 100 µM
- GI50 (LOX IMVI): > 100 µM (inactive)
- GI50 (DLD-1): > 100 µM (inactive)
